Laboratory results as given in US20060062729A1, “Enhanced ligand binding to neurotensin receptors” (priority 2004, published 2006).
Several values for one entry are separate records, joined by “and”; a condition that tells them apart may be missing. Identical values can stand only once. Like-named read-outs stand apart in the source and are kept apart here. Non-standard residues stand in square brackets, D forms with d. Residues, ends and D or L forms follow the SMILES beside them. Tyr(3-I) = N[C@@H](Cc1ccc(O)c(I)c1)C(=O)O; pGlu = O=C1CC[C@@H](C(=O)O)N1; Nle = CCCC[C@H](N)C(=O)O

Legend:
NTR1 [1] = molecular target: T1, NTR1 (Homo sapiens, UniProt P30989); assay: ^125I-NT binding to PC3 cells; details: for maximal increase in NT binding to PC3 cells: as much as / up to, dose-response
NTR1 [2] = molecular target: T1, NTR1; assay: NT-induced IP formation in PC3 cells; assay type: cell-based; parameters: Ab-NTR1 detected two major bands in extracts of PC3 cells, the parent protein of 50 kDa; endogenous in cells; host or cells: PC3 cells (ATCC)
NTR1 [3] = molecular target: T1, NTR1; assay: ^125I-NT binding to isolated PC3 cell membranes; parameters: Ab-NTR1 detected two major bands in extracts of PC3 cells, the parent protein of 50 kDa; endogenous in cells; host or cells: PC3 cells (ATCC)
PC3 cells = assay: Ionomycin-stimulated IP formation in PC3 cells; assay type: cell-based
bombesin receptor = molecular target: T2, bombesin receptor (Homo sapiens, UniProt P30550); assay: ^125I-[Nle^14]-bombesin binding to PC3 cells; details: for Specific Binding (% control) of ^125I-[Nle14]-bombesin: 37° C.
T2 construct: endogenous in cells; host or cells: PC3 cells (ATCC)

[4] = general reducing agents and antioxidants
[5] = vitamin-like antioxidants at 20-180 μM, n=3
[6] = 6 μM enzyme inhibitor, PC3 cells
[7] = 20 μM enzyme inhibitor, PC3 cells
[8] = 60 μM enzyme inhibitor, PC3 cells
[9] = read-out: NT Binding EC50, [agent] giving 75% increase in NT binding

T2 sequence (P30550 whole entry): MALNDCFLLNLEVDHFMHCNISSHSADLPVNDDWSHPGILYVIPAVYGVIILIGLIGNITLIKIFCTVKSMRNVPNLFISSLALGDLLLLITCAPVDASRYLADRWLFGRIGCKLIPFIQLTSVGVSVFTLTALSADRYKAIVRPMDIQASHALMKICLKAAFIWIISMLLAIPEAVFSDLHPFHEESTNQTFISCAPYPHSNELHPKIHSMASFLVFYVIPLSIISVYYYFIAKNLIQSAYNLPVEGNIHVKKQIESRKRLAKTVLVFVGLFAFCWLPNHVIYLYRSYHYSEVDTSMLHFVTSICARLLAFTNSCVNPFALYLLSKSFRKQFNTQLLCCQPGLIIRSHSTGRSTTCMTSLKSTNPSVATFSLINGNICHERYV
T1 sequence (P30989 whole entry): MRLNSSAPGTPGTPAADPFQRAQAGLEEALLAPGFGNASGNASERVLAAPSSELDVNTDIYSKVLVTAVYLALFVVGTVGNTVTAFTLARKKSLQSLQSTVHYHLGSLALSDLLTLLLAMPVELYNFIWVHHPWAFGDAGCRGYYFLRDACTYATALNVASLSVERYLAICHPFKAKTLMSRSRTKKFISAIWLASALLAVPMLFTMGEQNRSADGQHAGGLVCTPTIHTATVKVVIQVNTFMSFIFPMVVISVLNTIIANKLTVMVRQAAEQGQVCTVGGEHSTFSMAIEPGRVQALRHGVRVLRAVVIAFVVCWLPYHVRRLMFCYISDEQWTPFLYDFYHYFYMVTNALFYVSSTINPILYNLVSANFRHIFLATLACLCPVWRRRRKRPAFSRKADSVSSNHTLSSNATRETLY

O=C(O)CN(CCOCCOCCN(CC(=O)O)CC(=O)O)CC(=O)O [EGTA, ethylene glycol tetra-acetic acid]
increase in NT binding (NTR1 [1]): 38±6 % increase
effect on NT-induced IP formation (NTR1 [2]; Ca^2+-chelator added): inhibited

Cc1cc2nc3c(=O)[nH]c(=O)nc-3n(C[C@H](O)[C@H](O)[C@H](O)CO)c2cc1C [riboflavin]
effect on NT binding (NTR1 [1]; [4]): not much affected
effect on NT binding (NTR1 [1]; [5]): ineffective

[BH4-].[Na+] [sodium borohydride]
effect on NT binding (NTR1 [1]; [4]): not much affected
effect on NT binding (NTR1 [1]; used at 1-3 mM, n=3): without effect

COc1ccc([C@@H]2Sc3ccccc3N(CCN(C)C)C(=O)[C@@H]2OC(C)=O)cc1 [Diltiazem, diltiazem]
maximal increase in NT binding to PC3 cells (NTR1 [1]): ≤ 1.4 fold

N#CC(C#N)=NNc1cccc(Cl)c1 [CCCP, Carbonyl cyanide 3-chlorophenylhydrozone]
EC50 (NTR1 [1]): 23 µM

Cc1ncc(CO)c(CO)c1O [pyridoxine]
effect on NT binding (NTR1 [1]; [4]): not much affected
effect on NT binding (NTR1 [1]; [5]): ineffective

CC1=C(/C=C/C(C)=C/C=C/C(C)=C/C(=O)O)C(C)(C)CCC1 [Retinoic Acid, retinoic acid]
Specific NT-Binding (% control) (NTR1 [3]; 10 μM LOX pathway blocker): 102 ± 3 % control
Specific NT-Binding (% control) (NTR1 [3]; 25 μM LOX pathway blocker): 115 ± 4 % control
Specific NT-Binding (% control) (NTR1 [3]; 75 μM LOX pathway blocker): 142 ± 8 % control

CC(=O)OCOC(=O)CN(CC(=O)OCOC(C)=O)c1ccccc1OCCOc1ccccc1N(CC(=O)OCOC(C)=O)CC(=O)OCOC(C)=O [BAPTA-AM, 1,2-bis(o-aminophenoxy)ethane-N,N,N′,N′-tetraacetic acid tetra(acetoxymethyl) ester]
effect on NT binding (NTR1 [1]; chelation of intracellular Ca^2+, 50 μM BAPTA-AM): nor was NT binding altered

COc1ccc2c(c1)c(CC(=O)O)c(C)n2C(=O)c1ccc(Cl)cc1 [indomethacin]
Specific NT-Binding (% control) (NTR1 [1]; [6]): 109 ± 4 % control
Specific NT-Binding (% control) (NTR1 [1]; [7]): 95 ± 6 % control
Specific NT-Binding (% control) (NTR1 [1]; [8]): 113 ± 7 % control

COC(=O)c1c(C)[nH]c(C)c1C(=O)c1ccccc1Cc1ccccc1 [FPL-64176]
EC50 (NTR1 [1]; [9]): 29 µM

N#CC(=C(/N)Sc1ccccc1N)/C(C#N)=C(\N)Sc1ccccc1N [U0126]
Specific NT-Binding (% control) (NTR1 [1]): 118 ± 6 % control and 108 ± 6 % control and 120 ± 9 % control

CN1CCN(CCCN2c3ccccc3Sc3ccc(C(F)(F)F)cc32)CC1 [trifluoperazine]
effect on NT binding (NTR1 [1]; less specific CCBs): only modest effects

C[C@H](CCC(=O)O)C[C@H](C)C[C@H](C)C(=O)/C=C(\O)[C@H](C)C[C@H](C)C/C=C/[C@@H](C)[C@@H](O)[C@@H](C)[C@@H](O)C[C@@H]1CC[C@@](C)([C@H]2CC[C@@](C)([C@@H](C)O)O2)O1 [ionomycin]
IP formation (% control) (PC3 cells; 2 μM ionomycin): 139±6%
IP formation (% control) (PC3 cells; 10 μM ionomycin): 157±5 % control
IP formation (% control) (PC3 cells; 20 μM ionomycin): 324±14%
IP formation (% control) (PC3 cells; 25 μM ionomycin): 322±11 % control
share of the NT response reproduced (PC3 cells; IP formation): ~63%
reversal of NIF enhancement of NT binding (NTR1 [1]; 20 μM ionomycin): not reversed

Fc1ccc(C(c2ccc(F)cc2)N2CCN(C/C=C/c3ccccc3)CC2)cc1 [flunarizine]
effect on NT binding (NTR1 [1]; less specific CCBs): only modest effects

Clc1ccc(COC(Cn2ccnc2)c2ccc(Cl)cc2Cl)c(Cl)c1 (stereo not drawn) [miconazole]
NT Binding Efficacy % increase (NTR1 [1]; maximal % increase in NT binding observed for each agent): 75 % increase
IP Formation Efficacy (% decrease) (NTR1 [2]; maximal % decrease in NT-induced IP formation): 54 % decrease

Oc1cc(O)c2c(c1)O[C@H](c1ccc(O)c(O)c1)[C@@H](O)C2 [(+)-catechin]
effect on NT binding (NTR1 [1]; used at 10-100 μM, n=3): without effect

Cc1cc2c(C(C)C)c(O)c(O)c(C=O)c2c(O)c1-c1c(C)cc2c(C(C)C)c(O)c(O)c(C=O)c2c1O [Gossypol, gossypol]
NT Binding Efficacy % increase (NTR1 [1]; LOX blockers): 170 % increase
IC50 (NTR1 [2]; [agent] that decreased IP formation by 40%, read-out: IP Formation IC50): 20 µM

(−)-epigallocatechin gallate
effect on NT binding (NTR1 [1]; used at 10-100 μM, n=3): without effect

c1ccc2c(c1)[I+]c1ccccc1-2 [Diphenylene iodonium]
EC50 (NTR1 [1]): 61 µM
IC50 (NTR1 [2]; [agent] giving 50% decrease in IP formation, read-out: IP Formation IC50): 35 µM

Cc1c(C)c2c(c(C)c1O)CC[C@@](C)(CCC[C@H](C)CCC[C@H](C)CCCC(C)C)O2 [α-tocoferol]
effect on NT binding (NTR1 [1]; [5]): ineffective

COc1ccc(CCCOC(Cn2ccnc2)c2ccc(OC)cc2)cc1 (stereo not drawn) [SKF-96365]
Specific Binding (% control) of ^125I-[Nle^14]-bombesin (bombesin receptor; 12 μM agent): 99 ± 2 % control
Specific Binding (% control) of ^125I-[Nle^14]-bombesin (bombesin receptor; 60 μM agent): 106 ± 4 % control

Cc1ncc(C[n+]2csc(CCO)c2C)c(N)n1 [thiamine]
effect on NT binding (NTR1 [1]; [4]): not much affected
effect on NT binding (NTR1 [1]; [5]): ineffective

CC(Cc1ccc(O)c(O)c1)C(C)Cc1ccc(O)c(O)c1 (stereo not drawn) [NDGA, Nordihydroguaiaretic acid]
Specific Binding (% control) of ^125I-[Nle14]-bombesin (bombesin receptor; 12 μM LOX blocker): 110 ± 3 % control
Specific Binding (% control) of ^125I-[Nle14]-bombesin (bombesin receptor; 60 μM LOX blocker): 127 ± 4 % control
Specific NT-Binding (% control) (NTR1 [3]; 10 μM LOX pathway blocker): 110 ± 5 % control
Specific NT-Binding (% control) (NTR1 [3]; 25 μM LOX pathway blocker): 121 ± 8 % control
Specific NT-Binding (% control) (NTR1 [3]; 75 μM LOX pathway blocker): 132 ± 10 % control

O[C@H](CS)[C@H](O)CS (racemic) [DTT, dithiothreitol]
effect on NT binding (NTR1 [1]; [4]): not much affected

CCCCCC(O)c1cccc(OCc2ccc3ccccc3n2)c1 (stereo not drawn) [Rev5901]
Specific Binding (% control) of ^125I-[Nle14]-bombesin (bombesin receptor; 12 μM LOX blocker): 107 ± 3 % control
Specific Binding (% control) of ^125I-[Nle14]-bombesin (bombesin receptor; 60 μM LOX blocker): 119 ± 3 % control
NT Binding Efficacy % increase (NTR1 [1]; LOX blockers): 160 % increase
maximal increase in NT binding to PC3 cells (NTR1 [1]): ≤ 2.4 fold
Specific NT-Binding (% control) (NTR1 [3]; 10 μM LOX pathway blocker): 101 ± 4 % control
Specific NT-Binding (% control) (NTR1 [3]; 25 μM LOX pathway blocker): 113 ± 5 % control
Specific NT-Binding (% control) (NTR1 [3]; 75 μM LOX pathway blocker): 110 ± 5 % control

O=C(/C=C/c1ccc(O)c(O)c1)OCCc1ccccc1 [CAPE, caffeic acid phenethyl ester]
EC50 (NTR1 [1]): 34 µM
maximal increase in NT binding to PC3 cells (NTR1 [1]): ≤ 2.8 fold
IC50 (NTR1 [2]): 18 µM

COC(=O)C1=C(C)NC(C)=C([N+](=O)[O-])C1c1ccccc1C(F)(F)F (stereo not drawn) [BayK-8644]
EC50 (NTR1 [1]; [9]): 16 µM

CC(=O)N[C@@H](CS)C(=O)O [N-acetyl cysteine]
effect on NT binding (NTR1 [1]; used at 1-3 mM, n=3): without effect

Cc1c(C)c2c(c(C)c1O)CCC(C)(C(=O)O)O2 (stereo not drawn) [trolox]
effect on NT binding (NTR1 [1]; [4]): not much affected
effect on NT binding (NTR1 [1]; used at 10-100 μM, n=3): without effect

O=c1c(O)c(-c2ccc(O)c(O)c2)oc2cc(O)cc(O)c12 [quercetin]
effect on NT binding (figure legend) (NTR1 [1]; FIG. 21A): enhanced NT-binding to NTR
effect on NT-induced IP formation (figure legend) (NTR1 [2]; FIG. 21B): inhibited NT-induced IP formation

C[S+]([O-])c1ccc(-c2nc(-c3ccncc3)c(-c3ccc(F)cc3)[nH]2)cc1 (stereo not drawn) [SB203580]
Specific NT-Binding (% control) (NTR1 [1]; [6]): 108 ± 8 % control
Specific NT-Binding (% control) (NTR1 [1]; [7]): 116 ± 7 % control
Specific NT-Binding (% control) (NTR1 [1]; [8]): 125 ± 9 % control

C=C(C)[C@H]1Cc2c(ccc3c2O[C@@H]2COc4cc(OC)c(OC)cc4[C@@H]2C3=O)O1 [rotenone]
EC50 (NTR1 [1]): 38 µM

COc1ccc(CCN(C)CCCC(C#N)(c2ccc(OC)c(OC)c2)C(C)C)cc1OC (stereo not drawn) [Verapamil, verapamil]
Specific Binding (% control) of ^125I-[Nle^14]-bombesin (bombesin receptor; 12 μM agent): 104 ± 4 % control
Specific Binding (% control) of ^125I-[Nle^14]-bombesin (bombesin receptor; 60 μM agent): 104 ± 4 % control

CC1=C(/C=C/C(C)=C/C=C/C(C)=C/C=C/C=C(C)/C=C/C=C(C)/C=C/C2=C(C)CCCC2(C)C)C(C)(C)CCC1 [β-carotene]
effect on NT binding (NTR1 [1]; [5]): ineffective

COc1ccc(O)c(C(C)(C)C)c1 [BHA, butylated hydroxy anisole]
EC50 (NTR1 [1]; [9]): 110 µM

N[C@@H](CCC(=O)N[C@@H](CS)C(=O)NCC(=O)O)C(=O)O [glutathione]
effect on NT binding (NTR1 [1]; used at 1-3 mM, n=3): without effect

O=C1O[C@H]([C@@H](O)CO)C(O)=C1O [ascorbic acid]
effect on NT binding (NTR1 [1]; [4]): not much affected
effect on NT binding (NTR1 [1]; [5]): ineffective

O=c1oc2c(O)c(O)cc3c(=O)oc4c(O)c(O)cc1c4c23 [ellagic acid]
effect on NT binding (NTR1 [1]; used at 10-100 μM, n=3): without effect

CCCC[C@H](NC(=O)[C@H](CC(C)C)NC(=O)[C@H](Cc1c[nH]cn1)NC(=O)CNC(=O)[C@@H](NC(=O)[C@H](C)NC(=O)[C@H](Cc1c[nH]c2ccccc12)NC(=O)[C@H](CCC(N)=O)NC(=O)[C@H](CC(N)=O)NC(=O)CNC(=O)[C@H](Cc1ccc(O)c(I)c1)NC(=O)[C@H](CCCNC(=N)N)NC(=O)[C@H](CCC(N)=O)NC(=O)[C@@H]1CCC(=O)N1)C(C)C)C(N)=O [^125I-[Nle^14]-bombesin] ([pGlu]QR[Tyr(3-I)]GNQWAVGHL[Nle]-NH2; C-terminus assumed)
Specific Binding (% of total) (bombesin receptor; 10^5 cpm ^125I-ligand): 95 % of total
Bmax (bombesin receptor; Scatchard analysis): 1016 ± 64 fmol/mg

CCCc1c(OCCCCc2nnn[nH]2)ccc(C(C)=O)c1O [LY171883]
NT Binding Efficacy % increase (NTR1 [1]; LOX blockers): 157 % increase
EC50 (NTR1 [1]; read-out: NT Binding EC50, [agent] giving 100% increase in NT binding): 34 µM
